From patent US20240279207A1, “SUBSTITUTED ACYL SULFONAMIDES FOR TREATING CANCER” (The Broad Institute, Inc., priority 2020, published 2024)

What was measured:
[1] = molecular target: T1, Recombinant human His-tagged Kat6a protein (amino acids 194-810) (Homo sapiens, UniProt Q92794); experiment: Kat6a activity assay (TR-FRET, acetylation of Histone-H4-derived peptide); format: biochemical; conditions: 60 mins at 22° C., 220 nM H4 peptide, 600 nM Acetyl Coenzyme A, read-out: KAT6A - DPF/HAT domain IC50 [mol/l] (arithmetic mean)
T1 construct: Kat6a protein (amino acids 194-810); His
T1 sequence (Q92794 194-810): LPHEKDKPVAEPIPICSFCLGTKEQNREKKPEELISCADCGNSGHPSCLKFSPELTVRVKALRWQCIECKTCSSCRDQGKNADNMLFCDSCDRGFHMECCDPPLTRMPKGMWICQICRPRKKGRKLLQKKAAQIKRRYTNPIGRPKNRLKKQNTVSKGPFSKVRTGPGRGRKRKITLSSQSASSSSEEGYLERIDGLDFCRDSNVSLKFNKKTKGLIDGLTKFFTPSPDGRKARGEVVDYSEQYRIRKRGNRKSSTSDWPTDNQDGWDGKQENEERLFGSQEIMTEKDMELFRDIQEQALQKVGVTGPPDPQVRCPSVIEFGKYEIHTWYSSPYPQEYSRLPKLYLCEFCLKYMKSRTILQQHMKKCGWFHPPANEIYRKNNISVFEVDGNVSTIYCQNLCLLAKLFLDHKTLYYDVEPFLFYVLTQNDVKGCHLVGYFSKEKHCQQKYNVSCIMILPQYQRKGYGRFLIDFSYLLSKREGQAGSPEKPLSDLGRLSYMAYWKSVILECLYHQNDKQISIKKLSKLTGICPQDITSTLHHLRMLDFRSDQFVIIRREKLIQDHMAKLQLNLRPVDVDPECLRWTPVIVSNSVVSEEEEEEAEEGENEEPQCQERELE

[2] = system: ESR1 transcription in MVLN cells; experiment: MVLN reporter assay: repression of ESR1 transcription (luciferase signal); format: cell-based; conditions: Homo sapiens, MVLN, 24 h, luciferase signal after 24 h, read-out: MVLN reporter assay, IC50 [M] (arithmetic mean)
In short: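 MVLN cells, expressing ER and stably carrying a vitellogenin A2 ERE-luciferase reporter, treated with compound in duplicate; luciferase read after 24 h with Steadylite plus. Cell density checked in parallel by Alamar Blue fluorescence (530/590 nm, 2 h) before the luciferase read.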

| IC50 [1] | IC50 [2] | Structure (SMILES) |
| --- | --- | --- |
| 42.1 nM | 6.09e-07 M | Cc1ccc(S(=O)(=O)NC(=O)c2cc3c(F)cc(N4CCC4)cc3o2)c(OC(F)F)c1 [Example 35, 6-(Azetidin-1-yl)-N-[2-(difluoromethoxy)-4-methylbenzene-1-sulfonyl]-4-fluoro-1-benzofuran-2-carboxamide] |
| 41.3 nM | 2.36e-07 M | COc1ccc(Br)cc1S(=O)(=O)NC(=O)c1cc2c(F)cc(N3CCC3)cc2o1 [Example 139, 6-(azetidin-1-yl)-N-(5-bromo-2-methoxybenzene-1-sulfonyl)-4-fluoro-1-benzofuran-2-carboxamide] |
| 269 nM | > 2e-05 M | CCC(=O)Nc1cccc2c(S(=O)(=O)NC(=O)c3cc4c(F)cc(N5CCC5)cc4o3)cccc12 [Example 89, 6-(Azetidin-1-yl)-4-fluoro-N-(5-propanamidonaphthalene-1-sulfonyl)-1-benzofuran-2-carboxamide] |
| 251 nM | 2.34e-06 M | CC(C)N(C)c1cc(F)c(S(=O)(=O)NC(=O)c2cc3c(F)cc(N4CC(F)C4)cc3o2)c(F)c1 [Example 164, N-{2,6-difluoro-4-[methyl(propan-2-yl)amino]benzene-1-sulfonyl}-4-fluoro-6-(3-fluoroazetidin-1-yl)-1-benzofuran-2-carboxamide] |
| 517 nM | > 2e-05 M | CCS(=O)(=O)c1nc2ccccn2c1S(=O)(=O)NC(=O)c1cc2c(F)cc(N3CCC3)cc2o1 [Example 167, 6-(Azetidin-1-yl)-N-[2-(ethanesulfonyl)imidazo[1,2-a]pyridine-3-sulfonyl]-4-fluoro-1-benzofuran-2-carboxamide] |
| 139 nM | 5.12e-07 M | O=C(NS(=O)(=O)c1cccc2c1S(=O)(=O)CCC2)c1cc2c(F)cc(N3CCC3)cc2o1 [Example 141, 6-(Azetidin-1-yl)-N-(1,1-dioxo-1,2,3,4-tetrahydro-1-benzothiopyran-8-sulfonyl)-4-fluoro-1-benzofuran-2-carboxamide] |
| 135 nM | 1e-05 M | CN(C)c1cccc2c(S(=O)(=O)NC(=O)c3cc4c(F)cc(N5CCC5)cc4o3)cccc12 [Example 66, 6-(Azetidin-1-yl)-N-[5-(dimethylamino)naphthalene-1-sulfonyl]-4-fluoro-1-benzofuran-2-carboxamide] |
| 98.7 nM | 1.42e-06 M | O=C(NS(=O)(=O)c1c(F)cccc1NC1CC1)c1cc2c(F)cc(N3CCC3)cc2o1 [Example 50, 6-(Azetidin-1-yl)-N-[2-(cyclopropylamino)-6-fluorobenzene-1-sulfonyl]-4-fluoro-1-benzofuran-2-carboxamide] |
| 274 nM | 3.14e-06 M | CCSc1nc2ccccn2c1S(=O)(=O)NC(=O)c1cc2c(F)cc(N3CCC3)cc2o1 [Example 148, 6-(Azetidin-1-yl)-N-[2-(ethylsulfanyl)imidazo[1,2-a]pyridine-3-sulfonyl]-4-fluoro-1-benzofuran-2-carboxamide] |
| 179 nM | 8.64e-07 M | CC(C)Nc1cccc(F)c1S(=O)(=O)NC(=O)c1cc2c(F)cc(N3CCC3)cc2o1 [Example 42, 6-(Azetidin-1-yl)-4-fluoro-N-{2-fluoro-6-[(propan-2-yl)amino]benzene-1-sulfonyl}-1-benzofuran-2-carboxamide] |
| 34 nM | 3.19e-07 M | O=C(NS(=O)(=O)c1ccccc1I)c1cc2c(F)cc(N3CCC3)cc2o1 [Example 22, 6-(Azetidin-1-yl)-4-fluoro-N-(2-iodobenzene-1-sulfonyl)-1-benzofuran-2-carboxamide] |
| 26.2 nM | 1.74e-07 M | COc1ccc(N2CCOCC2)cc1S(=O)(=O)NC(=O)c1cc2c(F)cc(N3CCC3)cc2o1 [Example 137, 6-(Azetidin-1-yl)-4-fluoro-N-[2-methoxy-5-(morpholin-4-yl)benzene-1-sulfonyl]-1-benzofuran-2-carboxamide] |
| 300 nM | > 2e-05 M | CCOC(=O)c1cn2cccc(S(=O)(=O)NC(=O)c3cc4c(F)cc(N5CCC5)cc4o3)c2n1 [Example 90, Ethyl 8-{[6-(azetidin-1-yl)-4-fluoro-1-benzofuran-2-carbonyl]sulfamoyl}imidazo[1,2-a]pyridine-2-carboxylate] |
| 406 nM | > 2e-05 M | O=C(NS(=O)(=O)c1ccccc1C(Cl)Cl)c1cc2c(F)cc(N3CC(F)C3)cc2o1 [Example 114, N-[2-(dichloromethyl)benzene-1-sulfonyl]-4-fluoro-6-(3-fluoroazetidin-1-yl)-1-benzofuran-2-carboxamide] |
| 111 nM | 1.1e-06 M | O=C(NS(=O)(=O)c1ccccc1S(=O)(=O)c1ccccc1)c1cc2c(F)cc(N3CCC3)cc2o1 [Example 45, 6-(Azetidin-1-yl)-N-[2-(benzenesulfonyl)benzene-1-sulfonyl]-4-fluoro-1-benzofuran-2-carboxamide] |
| 698 nM | 1.58e-06 M | Cc1cccc(C(C)C)c1S(=O)(=O)NC(=O)c1cc2c(F)cc(N3CCC3)cc2o1 [Example 53, 6-(Azetidin-1-yl)-4-fluoro-N-[2-methyl-6-(propan-2-yl)benzene-1-sulfonyl]-1-benzofuran-2-carboxamide] |
| 132 nM | 2.55e-06 M | O=C(NS(=O)(=O)c1cccc2c(N3CCOCC3)cccc12)c1cc2c(F)cc(N3CCC3)cc2o1 [Example 188, 6-(Azetidin-1-yl)-4-fluoro-N-[5-(morpholin-4-yl)naphthalene-1-sulfonyl]-1-benzofuran-2-carboxamide] |
| 21.4 nM | 2.24e-07 M | O=C(NS(=O)(=O)c1cc(Br)cc2c1OCC2)c1cc2c(F)cc(N3CCC3)cc2o1 [Example 177, 6-(Azetidin-1-yl)-N-(5-bromo-2,3-dihydro-1-benzofuran-7-sulfonyl)-4-fluoro-1-benzofuran-2-carboxamide] |
| 7.58 nM | 2.44e-07 M | CCOc1ccc(Oc2ccccc2)cc1S(=O)(=O)NC(=O)c1cc2c(F)cc(N3CCC3)cc2o1 [Example 211, 6-(Azetidin-1-yl)-N-(2-ethoxy-5-phenoxy-phenyl)sulfonyl-4-fluoro-benzofuran-2-carboxamide] |
| 613 nM | 1.02e-05 M | O=C(NS(=O)(=O)c1cc(C(F)(F)F)cnc1Cl)c1cc2c(F)cc(N3CCC3)cc2o1 [Example 103, 6-(Azetidin-1-yl)-N-[2-chloro-5-(trifluoromethyl)pyridine-3-sulfonyl]-4-fluoro-1-benzofuran-2-carboxamide] |
| 21 nM | 1.25e-07 M | COc1ccc2cccnc2c1S(=O)(=O)NC(=O)c1cc2c(F)cc(N3CCC3)cc2o1 [Example 8, 6-(Azetidin-1-yl)-4-fluoro-N-(7-methoxyquinoline-8-sulfonyl)-1-benzofuran-2-carboxamide] |
| 318 nM | 8.64e-07 M | CC(C)N(C)c1cc(F)cc(F)c1S(=O)(=O)NC(=O)c1cc2c(F)cc(N3CC(F)C3)cc2o1 [Example 165, N-{2,4-difluoro-6-[methyl(propan-2-yl)amino]benzene-1-sulfonyl}-4-fluoro-6-(3-fluoroazetidin-1-yl)-1-benzofuran-2-carboxamide] |
| 290 nM | 2.83e-06 M | Cc1ccnc2c1c(S(=O)(=O)NC(=O)c1cc3c(F)cc(N4CCC4)cc3o1)nn2C [Example 146, 6-(Azetidin-1-yl)-N-(1,4-dimethyl-1H-pyrazolo[3,4-b]pyridine-3-sulfonyl)-4-fluoro-1-benzofuran-2-carboxamide] |
| 362 nM | 7.22e-06 M | CC(C)N(C)c1ccc(S(=O)(=O)NC(=O)c2cc3c(F)cc(N4CC(F)C4)cc3o2)c(F)c1F [Example 166, N-{2,3-difluoro-4-[methyl(propan-2-yl)amino]benzene-1-sulfonyl}-4-fluoro-6-(3-fluoroazetidin-1-yl)-1-benzofuran-2-carboxamide] |
| 399 nM | 5.6e-06 M | Cc1cccc(C2CCCC2)c1S(=O)(=O)NC(=O)c1cc2c(F)cc(N3CCC3)cc2o1 [Example 61, 6-(Azetidin-1-yl)-N-(2-cyclopentyl-6-methylbenzene-1-sulfonyl)-4-fluoro-1-benzofuran-2-carboxamide] |
| 135 nM | 1.72e-06 M | CCOCc1ccc(Cl)c(S(=O)(=O)NC(=O)c2cc3c(F)cc(N4CCC4)cc3o2)c1 [Example 54, 6-(Azetidin-1-yl)-N-[2-chloro-5-(ethoxymethyl)benzene-1-sulfonyl]-4-fluoro-1-benzofuran-2-carboxamide] |
| 127 nM | 4.45e-07 M | Cc1ccc(F)c(S(=O)(=O)NC(=O)c2cc3c(F)cc(N4CCC4)cc3o2)c1F [Example 88, 6-(Azetidin-1-yl)-N-(2,6-difluoro-3-methylbenzene-1-sulfonyl)-4-fluoro-1-benzofuran-2-carboxamide] |
| 652 nM | 1.26e-05 M | N#CCCc1ccc(S(=O)(=O)NC(=O)c2cc3c(F)cc(N4CCC4)cc3o2)cc1 [Example 68, 6-(Azetidin-1-yl)-N-[4-(2-cyanoethyl)benzene-1-sulfonyl]-4-fluoro-1-benzofuran-2-carboxamide] |
| 84.3 nM | 1.72e-05 M | O=C(NS(=O)(=O)c1cc(O)cc2ccccc12)c1cc2c(F)cc(N3CCC3)cc2o1 [Example 71, 6-(Azetidin-1-yl)-4-fluoro-N-(3-hydroxynaphthalene-1-sulfonyl)-1-benzofuran-2-carboxamide] |
| 75.2 nM | 1.45e-07 M | CN(C)c1ccccc1S(=O)(=O)NC(=O)c1cc2c(F)cc(N3CCC3)cc2o1 [Example 11, 6-(Azetidin-1-yl)-N-[2-(dimethylamino)benzene-1-sulfonyl]-4-fluoro-1-benzofuran-2-carboxamide] |

| Structure (SMILES) | IC50 [1] | IC50 [2] |
| --- | --- | --- |
| CC(C)c1ccc(OC2CCC2)c(S(=O)(=O)NC(=O)c2cc3c(F)cc(N4CCC4)cc3o2)c1 [Example 230, 6-(Azetidin-1-yl)-N-[(2-cyclobutoxy-5-isopropylphenyl)sulfonyl]-4-fluorobenzofuran-2-carboxamide] | 7.71 nM | 8.72e-08 M |
